Laboratory results taken from ChEMBL document CHEMBL2069226, “N-Aryl pyrrolidinonyl oxadiazoles as potent mGluR5 positive allosteric modulators” (Bioorg Med Chem Lett, 2012).
Values after ≈ are worked out from the molar mass of the structure shown.

What was measured:
[1] = biological target: T1, Metabotropic glutamate receptor 5 (Homo sapiens, UniProt P41594); assay: Negative allosteric modulation of human mGluR5 expressed in HEK293A cells assessed as inhibition of glutamate-induced calcium flux by FLIPR method; assay type: functional, cell-based, HEK293-A; settings: for inhibition: HEK293-A, concentration not given here
[2] = biological target: T1, Metabotropic glutamate receptor 5; assay: Positive allosteric modulation of human mGluR5 expressed in HEK293A cells assessed as stimulation of glutamate-induced calcium flux by FLIPR method; assay type: functional, cell-based, HEK293-A; settings: for Emax: HEK293-A
[3] = Solubility of the compound in […] by UPLC method; assay type: physicochemical
[4] = biological target: T1, Metabotropic glutamate receptor 5; assay: Displacement of [3H]NAM from mGluR5
Target sequence in this assay (P41594 whole entry): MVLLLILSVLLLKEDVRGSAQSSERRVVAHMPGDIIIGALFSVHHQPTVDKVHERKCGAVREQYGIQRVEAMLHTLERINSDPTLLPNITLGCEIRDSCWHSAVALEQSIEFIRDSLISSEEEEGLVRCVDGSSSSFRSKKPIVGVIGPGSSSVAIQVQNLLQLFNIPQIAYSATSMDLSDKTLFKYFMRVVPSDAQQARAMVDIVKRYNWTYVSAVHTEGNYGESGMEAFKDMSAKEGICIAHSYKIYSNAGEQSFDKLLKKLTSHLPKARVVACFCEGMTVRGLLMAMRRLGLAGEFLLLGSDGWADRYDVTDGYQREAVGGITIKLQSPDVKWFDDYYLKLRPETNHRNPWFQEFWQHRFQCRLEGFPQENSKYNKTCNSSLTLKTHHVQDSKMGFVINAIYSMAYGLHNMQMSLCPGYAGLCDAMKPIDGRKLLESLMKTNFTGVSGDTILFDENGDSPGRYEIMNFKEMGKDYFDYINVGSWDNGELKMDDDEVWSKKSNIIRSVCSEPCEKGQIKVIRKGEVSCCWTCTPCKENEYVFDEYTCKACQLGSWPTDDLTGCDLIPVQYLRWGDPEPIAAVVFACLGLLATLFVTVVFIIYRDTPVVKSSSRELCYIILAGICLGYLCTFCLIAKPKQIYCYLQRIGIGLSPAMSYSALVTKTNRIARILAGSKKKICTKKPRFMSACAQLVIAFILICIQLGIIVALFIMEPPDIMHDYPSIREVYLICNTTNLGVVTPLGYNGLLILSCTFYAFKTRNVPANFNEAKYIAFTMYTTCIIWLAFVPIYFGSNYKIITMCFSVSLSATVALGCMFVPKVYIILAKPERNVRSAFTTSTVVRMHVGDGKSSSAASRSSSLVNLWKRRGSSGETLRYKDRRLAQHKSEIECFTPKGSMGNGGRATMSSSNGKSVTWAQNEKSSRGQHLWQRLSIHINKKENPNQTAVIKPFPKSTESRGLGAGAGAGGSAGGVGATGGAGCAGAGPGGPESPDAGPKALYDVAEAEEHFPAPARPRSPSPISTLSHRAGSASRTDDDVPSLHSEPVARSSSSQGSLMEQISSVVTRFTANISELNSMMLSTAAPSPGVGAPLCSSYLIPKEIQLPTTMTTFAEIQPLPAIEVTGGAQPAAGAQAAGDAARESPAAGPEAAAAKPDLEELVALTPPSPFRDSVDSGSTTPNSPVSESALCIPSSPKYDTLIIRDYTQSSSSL

[5] = biological target: Cytochrome P450 2C9 (Homo sapiens, UniProt P11712); assay: Inhibition of CYP2C9; assay type: ADME
Cytochrome P450 2C9, sequence (P11712 whole entry): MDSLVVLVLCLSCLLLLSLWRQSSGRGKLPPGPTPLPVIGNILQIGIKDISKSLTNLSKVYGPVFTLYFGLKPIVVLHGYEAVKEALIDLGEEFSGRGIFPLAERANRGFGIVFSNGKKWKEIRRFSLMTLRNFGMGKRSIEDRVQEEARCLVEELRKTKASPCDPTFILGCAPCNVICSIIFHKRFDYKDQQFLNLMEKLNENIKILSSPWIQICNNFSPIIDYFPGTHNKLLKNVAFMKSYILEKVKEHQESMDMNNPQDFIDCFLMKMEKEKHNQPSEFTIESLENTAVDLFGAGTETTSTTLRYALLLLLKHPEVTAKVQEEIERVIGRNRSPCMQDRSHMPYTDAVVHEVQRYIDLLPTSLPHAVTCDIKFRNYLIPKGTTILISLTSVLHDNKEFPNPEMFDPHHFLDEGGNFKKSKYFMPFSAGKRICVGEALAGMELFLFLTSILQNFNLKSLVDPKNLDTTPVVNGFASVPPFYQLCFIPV

[6] = biological target: T2, Cytochrome P450 1A2 (Homo sapiens, UniProt P05177); assay: Inhibition of CYP1A2; assay type: ADME
T2 sequence (P05177 whole entry): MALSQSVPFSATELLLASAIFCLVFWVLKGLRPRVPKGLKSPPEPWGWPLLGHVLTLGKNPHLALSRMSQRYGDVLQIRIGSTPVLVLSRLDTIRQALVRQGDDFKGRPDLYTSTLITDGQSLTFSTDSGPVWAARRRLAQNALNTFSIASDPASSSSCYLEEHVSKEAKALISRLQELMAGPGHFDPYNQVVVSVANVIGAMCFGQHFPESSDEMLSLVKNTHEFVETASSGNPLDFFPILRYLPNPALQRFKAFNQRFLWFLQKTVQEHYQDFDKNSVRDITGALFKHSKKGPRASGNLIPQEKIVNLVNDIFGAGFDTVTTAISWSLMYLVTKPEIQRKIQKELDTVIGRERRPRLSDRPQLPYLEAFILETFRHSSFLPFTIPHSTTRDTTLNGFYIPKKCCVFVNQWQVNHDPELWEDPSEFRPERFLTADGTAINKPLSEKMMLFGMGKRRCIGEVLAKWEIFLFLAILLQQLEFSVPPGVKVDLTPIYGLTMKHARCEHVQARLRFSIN

[7] = tested on: Liver; assay: Intrinsic clearance in human liver; assay type: ADME, tissue-based
[8] = biological target: Cytochrome P450 2C19 (Homo sapiens, UniProt P33261); assay: Inhibition of CYP2C19; assay type: ADME
Cytochrome P450 2C19, sequence (P33261 whole entry): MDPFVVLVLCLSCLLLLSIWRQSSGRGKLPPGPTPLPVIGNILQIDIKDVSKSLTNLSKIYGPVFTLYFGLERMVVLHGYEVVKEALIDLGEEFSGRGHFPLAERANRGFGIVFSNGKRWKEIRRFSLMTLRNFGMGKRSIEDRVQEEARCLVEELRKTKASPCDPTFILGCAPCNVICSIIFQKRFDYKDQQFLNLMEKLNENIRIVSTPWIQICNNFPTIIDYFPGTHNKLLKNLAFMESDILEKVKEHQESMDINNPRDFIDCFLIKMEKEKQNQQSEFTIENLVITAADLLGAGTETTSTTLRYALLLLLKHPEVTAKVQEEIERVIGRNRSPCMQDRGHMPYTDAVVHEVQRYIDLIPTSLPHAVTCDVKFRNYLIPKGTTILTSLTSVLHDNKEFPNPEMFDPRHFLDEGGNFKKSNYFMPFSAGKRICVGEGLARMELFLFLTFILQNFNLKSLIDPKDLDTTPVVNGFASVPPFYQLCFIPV

[9] = biological target: Cytochrome P450 3A4 (Homo sapiens, UniProt P08684); assay: Inhibition of CYP3A4; assay type: ADME
Cytochrome P450 3A4, sequence (P08684 whole entry): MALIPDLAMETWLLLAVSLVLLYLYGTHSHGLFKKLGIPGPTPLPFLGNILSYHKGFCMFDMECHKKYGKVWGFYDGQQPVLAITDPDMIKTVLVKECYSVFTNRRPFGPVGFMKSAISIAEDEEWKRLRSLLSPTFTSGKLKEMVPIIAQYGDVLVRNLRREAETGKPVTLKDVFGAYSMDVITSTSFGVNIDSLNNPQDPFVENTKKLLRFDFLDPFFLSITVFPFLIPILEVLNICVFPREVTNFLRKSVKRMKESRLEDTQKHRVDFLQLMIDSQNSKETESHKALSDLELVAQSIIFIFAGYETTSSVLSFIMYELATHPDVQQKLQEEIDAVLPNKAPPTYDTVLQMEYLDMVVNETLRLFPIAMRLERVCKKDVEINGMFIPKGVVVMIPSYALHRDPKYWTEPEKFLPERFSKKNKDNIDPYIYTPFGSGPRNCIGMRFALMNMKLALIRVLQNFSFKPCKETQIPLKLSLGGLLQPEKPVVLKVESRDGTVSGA

[10] = biological target: Cytochrome P450 2D6 (Homo sapiens, UniProt P10635); assay: Inhibition of CYP2D6; assay type: ADME
Cytochrome P450 2D6, sequence (P10635 whole entry): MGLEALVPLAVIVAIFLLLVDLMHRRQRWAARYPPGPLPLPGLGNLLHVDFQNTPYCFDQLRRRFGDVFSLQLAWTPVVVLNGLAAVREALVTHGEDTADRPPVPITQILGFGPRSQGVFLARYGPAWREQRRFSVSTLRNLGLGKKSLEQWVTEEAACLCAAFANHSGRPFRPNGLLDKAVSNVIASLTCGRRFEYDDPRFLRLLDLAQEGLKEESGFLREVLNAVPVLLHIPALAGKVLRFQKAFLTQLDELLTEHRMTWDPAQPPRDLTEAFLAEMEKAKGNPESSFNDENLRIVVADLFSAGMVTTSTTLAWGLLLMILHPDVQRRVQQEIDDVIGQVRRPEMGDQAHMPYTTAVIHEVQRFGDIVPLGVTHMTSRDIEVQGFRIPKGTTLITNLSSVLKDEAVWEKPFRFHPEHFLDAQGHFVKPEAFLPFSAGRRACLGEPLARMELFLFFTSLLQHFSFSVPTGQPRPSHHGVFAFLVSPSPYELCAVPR

[11] = tested on: Liver; assay: Intrinsic clearance in rat liver; assay type: ADME, tissue-based
[12] = Apparent permeability from apical to basolateral direction in MDCKI cells expressing MDR; assay type: ADME, cell-based, Canis lupus familiaris; settings: dog, MDCK-MDR1
[13] = Plasma protein binding in rat plasma; assay type: ADME, cell-free; settings: read-out: PPB (converted)
[14] = Plasma concentration in rat at 10 mg/kg, ip administered as single dose after 1 hr; assay type: ADME, organism-based; design: dose 10 mg/kg, route intraperitoneal
[15] = Drug uptake in rat brain at 10 mg/kg, ip administered as single dose after 1 hr; assay type: ADME, organism-based; design: dose 10 mg/kg, route intraperitoneal; settings: read-out: Drug uptake
[16] = Plasma protein binding in human plasma; assay type: ADME, cell-free; settings: read-out: PPB (converted)
[17] = Ratio of drug uptake in brain to plasma in rat at 10 mg/kg, ip administered as single dose after 1 hr; assay type: ADME, organism-based; design: dose 10 mg/kg, route intraperitoneal; settings: read-out: BPR
[18] = Apparent permeability from basolateral to apical direction in MDCKI cells expressing MDR; assay type: ADME, cell-based, Canis lupus familiaris; settings: dog, MDCK-MDR1

Structure (SMILES) | IC50 [1] [µM] | inhibition [1] [%] | EC50 [2] [µM] | Emax [2] [%] | other results
Cc1ccccc1N1CC(c2nc(-c3cccc(Cl)c3)no2)CC1=O (configuration not stated) | 0.37 | 91 | > 10 | -29 | –
O=C1CC(c2nc(-c3cccc(Cl)c3)no2)CN1c1ccc(Cl)c(Cl)c1 (configuration not stated) | > 10 | 8.3 | 0.46 | 51 | –
O=C1CC(c2nc(-c3ccccn3)no2)CN1c1ccc(F)cc1 (configuration not stated) | – | – | > 10 | -41 | solubility [3]: 26 µM (≈ 8.43 µg/mL)
O=C1CC(c2nc(-c3cccc(Cl)c3)no2)CN1c1ccc(F)cc1 (single isomer, unassigned; (-)) | – | – | 0.0088 | – | Ki [4]: 0.15 µM
Cc1ccc(N2CC(c3nc(-c4cccc(F)c4)no3)CC2=O)cc1 (configuration not stated) | – | – | 1.2 | 130 | –
O=C1CC(c2nc(-c3ccc(F)cc3)no2)CN1c1ccc(Cl)cc1 (configuration not stated) | – | – | 1.7 | 33 | –
CC(C)CN1CC(c2nc(-c3cccc(Cl)c3)no2)CC1=O (configuration not stated) | 0.92 | – | – | – | solubility [3]: 23 µM (≈ 7.36 µg/mL)
Cc1cccc(-c2noc(C3CC(=O)N(c4ccc(Cl)c(Cl)c4)C3)n2)c1 (configuration not stated) | – | – | 0.39 | 65 | –
C[C@H](c1ccccc1)N1C[C@H](c2nc(-c3cccc(Cl)c3)no2)CC1=O | 1.6 | – | – | – | solubility [3]: 23 µM (≈ 8.46 µg/mL)
O=C1CC(c2nc(-c3cccc(Cl)c3)no2)CN1c1ccc(F)cc1 (racemic) [listing 1 of 2 here] | – | – | – | 55 | –
O=C1CC(c2nc(Cc3ccccc3)no2)CN1c1ccc(F)cc1 (configuration not stated) | – | – | – | – | solubility [3]: 23 µM (≈ 7.76 µg/mL)
O=C1CC(c2nc(-c3cccc(Cl)c3)no2)CN1c1ccccc1F (configuration not stated) | 1.1 | 89 | > 10 | -29 | –
Cc1cccc(-c2noc(C3CC(=O)N(c4ccc(F)cc4)C3)n2)n1 (configuration not stated) | – | – | > 10 | -15 | solubility [3]: 26 µM (≈ 8.8 µg/mL)
O=C1CC(c2nc(-c3cccc(F)c3)no2)CN1c1ccc(F)cc1 (configuration not stated) | – | – | 0.088 | 140 | –
CC(C)N1CC(c2nc(-c3cccc(Cl)c3)no2)CC1=O (configuration not stated) | – | – | – | – | solubility [3]: 23 µM (≈ 7.03 µg/mL)
O=C1CC(c2nc(-c3cccc(F)c3)no2)CN1c1ccc(Cl)cc1 (configuration not stated) | – | – | 0.63 | 120 | –
Cc1ccc(N2CC(c3nc(-c4ccccc4)no3)CC2=O)cc1 (configuration not stated) | – | – | 0.384 | 41 | –
COc1ccc(N2CC(c3nc(-c4cccc(Cl)c4)no3)CC2=O)cc1 (configuration not stated) | 3.52 | 2 | > 10 | 47 | –
Cc1cccc(-c2noc(C3CC(=O)N(c4ccc(Cl)cc4)C3)n2)c1 (configuration not stated) | – | – | 0.17 | 1.6 | –
O=C1COc2ccccc2N1Cc1nc(-c2cccc(Cl)c2)no1 | 0.77 | 84 | > 10 | -28 | –
COc1ccccc1N1CC(c2nc(-c3cccc(Cl)c3)no2)CC1=O (configuration not stated) | 0.63 | 93 | > 10 | -31 | –
COc1cccc(-c2noc(C3CC(=O)N(c4ccc(F)cc4)C3)n2)c1 (configuration not stated) | – | – | 1.1 | 48 | –
O=C1CC(c2nc(-c3ccccc3)no2)CN1c1ccc(F)cc1 (configuration not stated) | – | – | 0.058 | 130 | –
O=C1CC(c2nc(-c3ccc(Cl)cc3)no2)CN1c1ccc(Cl)c(Cl)c1 (configuration not stated) | – | – | 1.1 | 44 | –
Cc1ccc(N2CC(c3nc(-c4cccc(C)c4)no3)CC2=O)cc1 (configuration not stated) | – | – | 1.3 | 150 | –

Structure (SMILES) | IC50 [1] [µM] | inhibition [1] [%] | EC50 [2] [µM] | Emax [2] [%] | other results
COc1cccc(-c2noc(C3CC(=O)N(c4ccc(Cl)cc4)C3)n2)c1 (configuration not stated) | – | – | 4.8 | 50 | –
Cc1cccc(-c2noc(C3CC(=O)N(c4ccc(F)cc4)C3)n2)c1 (racemic) [listing 1 of 2 here] | – | – | 0.0125 | – | IC50 [5]: > 11 µM; solubility [3]: 2.7 µM (≈ 0.911 µg/mL); IC50 [6]: > 11 µM; CLH [7]: 2.7 L/min; IC50 [8]: > 11 µM; IC50 [9]: > 11 µM; IC50 [10]: > 11 µM; CLH [11]: 27 mL/min
O=C1CC(c2nc(-c3cccc(Cl)c3)no2)CN1c1cccc(Cl)c1 (configuration not stated) | 1.1 | 68 | > 10 | -18 | –
Cc1ccc(N2CC(c3nc(-c4cccc(C(F)(F)F)c4)no3)CC2=O)cc1 (configuration not stated) | – | – | 3.4 | 32 | –
O=C1CC(c2nc(-c3cccc(F)c3)no2)CN1c1ccc(Cl)c(Cl)c1 (configuration not stated) | – | – | 3.2 | 140 | –
O=C1CC(c2nc(-c3cccc(C(F)(F)F)c3)no2)CN1c1ccc(F)cc1 (configuration not stated) | – | – | > 10 | 25 | –
O=C1COc2ccccc2N1CCc1nc(-c2cccc(Cl)c2)no1 | 0.8 | 88 | > 10 | -29 | –
Cc1cccc(-c2noc(C3CC(=O)N(c4ccc(Cl)cc4)C3)n2)n1 (configuration not stated) | – | – | > 10 | 1 | solubility [3]: 26 µM (≈ 9.22 µg/mL)
O=c1oc2ccccc2n1Cc1nc(-c2cccc(Cl)c2)no1 | 2.1 | 50 | > 10 | 4 | –
COc1cccc(N2CC(c3nc(-c4cccc(Cl)c4)no3)CC2=O)c1 (configuration not stated) | 0.69 | 92 | > 10 | -37 | –
Cc1cccc(-c2noc(C3CC(=O)N(c4ccc(F)cc4)C3)n2)c1 (single isomer, unassigned; (-)) | – | – | 0.0051 | – | Papp A→B [12]: 20 ×10⁻⁶ cm/s; CLH [7]: 1 L/min; Ki [4]: 0.23 µM; fraction unbound [13]: 0.003; concentration at 1 h [14]: 46 ng/mL; concentration at 1 h [15]: 342 ng/g; fraction unbound [16]: 0.007; Kp at 1 h [17]: 7.5; Papp B→A [18]: 6.4 ×10⁻⁶ cm/s; CLH [11]: 20 mL/min
Cc1ccc(N2CC(c3nc(-c4cccc(Cl)c4)no3)CC2=O)cc1 (configuration not stated) | > 10 | -2.5 | 0.63 | 69 | –
O=C1CC(c2nc(-c3cccc(Cl)c3)no2)CN1c1ccc(Cl)cc1 (configuration not stated) | > 10 | 44 | 0.14 | 67 | –
O=C1CC(c2nc(-c3cccc(Cl)c3)no2)CN1Cc1ccc(F)cc1 (configuration not stated) | 3.6 | – | – | – | solubility [3]: 23 µM (≈ 8.55 µg/mL)
Cc1cccc(-c2noc(C3CC(=O)N(c4ccc(F)cc4)C3)n2)c1 (racemic) [listing 2 of 2 here] | – | – | – | 78 | –
O=C1CC(c2nc(-c3ccc(F)cc3)no2)CN1c1ccc(Cl)c(Cl)c1 (configuration not stated) | – | – | 2.3 | 44 | –
Cc1cccc(-c2noc(C3CC(=O)N(c4ccc(C)c(Cl)c4)C3)n2)c1 (configuration not stated) | – | – | 0.24 | 90 | –
O=C1CC(c2nc(-c3cccc(Cl)c3)no2)CN1c1ccccc1Cl (configuration not stated) | 0.68 | 93 | > 10 | -31 | –
O=c1sc2ccccc2n1Cc1nc(-c2cccc(Cl)c2)no1 | 1.1 | 71 | > 10 | 7 | –
O=C1CC(c2nc(-c3cccc(Cl)c3)no2)CN1c1ccc(F)cc1 (racemic) [listing 2 of 2 here] | > 10 | – | 0.0107 | – | solubility [3]: 15 µM (≈ 5.37 µg/mL); CLH [7]: 0.6 L/min; Ki [4]: 0.41 µM; concentration at 1 h [14]: 22 ng/mL; concentration at 1 h [15]: 86 ng/g; CLH [11]: 22 mL/min
Cc1cccc(N2CC(c3nc(-c4cccc(Cl)c4)no3)CC2=O)c1 (configuration not stated) | 2.3 | 85 | > 10 | 28 | –
O=C1CC(c2nc(-c3ccccc3)no2)CN1c1ccccc1 (configuration not stated) | – | – | 0.35 | 42 | –
O=C1CCc2ccc(Cl)cc2N1CCc1nc(-c2cccc(Cl)c2)no1 | 0.55 | 82 | > 10 | -29 | –
Cc1ccc(N2CC(c3nc(-c4cccc(Cl)c4)no3)CC2=O)cc1C (configuration not stated) | > 10 | – | 0.31 | 57 | –
